Results taken from US20240216357A1 (SICHUAN HUIYU PHARMACEUTICAL CO., LTD., priority 2021, published 2024).
Counter-ions that a name gives are not always drawn. Like-named read-outs stand apart in the source and are kept apart here. One block for each compound: values may come before it.

Experiments:
Rat PK test (IV and PO) = conditions: for Cl / F: Male SD rats; for F: PO vs IV; for AUC(0-inf) / Cmax / half-life / Vd: male, SD, rat, plasma; for Vd: intravenous
Caco-2 permeability test = conditions: human, Caco-2
CYP3A4 = CYP3A4 (Homo sapiens (Human), UniProt P08684); test: CYP 450 enzyme inhibition test (mixed human liver microsomes, LC-MS/MS)
[1] = molecular target: voltage-gated potassium ion channel hERG (Homo sapiens (Human), UniProt Q12809); test: hERG inhibition test (manual patch-clamp)
LSD1 = LSD1 (Homo sapiens (Human), UniProt O60341); test: LSD1 enzyme activity detection (HTRF); format: biochemical; conditions: HTRF, H3K4me1 substrate; read-out: Inhibition of enzymatic activity of LSD1 IC50
NCI-H1417 cells = test: In vitro cell proliferation detection (CellTiter-Glo, 7 days); format: cell-based; conditions: Homo sapiens
in vitro = conditions: human, Caco-2
[2] = read-out: CYP3A4-T IC50, mixed human liver microsomes, NADPH, CYP3A4-T probe substrate
[3] = 168 h, NCI-H1417 cells, 7 days, CellTiter-Glo, read-out: NCI-H1417 proliferation inhibition IC50
[4] = read-out: hERG IC50, manual patch-clamp
For Cmax in this document: test concentration or dose not given here.

voltage-gated potassium ion channel hERG, sequence (Q12809 whole entry): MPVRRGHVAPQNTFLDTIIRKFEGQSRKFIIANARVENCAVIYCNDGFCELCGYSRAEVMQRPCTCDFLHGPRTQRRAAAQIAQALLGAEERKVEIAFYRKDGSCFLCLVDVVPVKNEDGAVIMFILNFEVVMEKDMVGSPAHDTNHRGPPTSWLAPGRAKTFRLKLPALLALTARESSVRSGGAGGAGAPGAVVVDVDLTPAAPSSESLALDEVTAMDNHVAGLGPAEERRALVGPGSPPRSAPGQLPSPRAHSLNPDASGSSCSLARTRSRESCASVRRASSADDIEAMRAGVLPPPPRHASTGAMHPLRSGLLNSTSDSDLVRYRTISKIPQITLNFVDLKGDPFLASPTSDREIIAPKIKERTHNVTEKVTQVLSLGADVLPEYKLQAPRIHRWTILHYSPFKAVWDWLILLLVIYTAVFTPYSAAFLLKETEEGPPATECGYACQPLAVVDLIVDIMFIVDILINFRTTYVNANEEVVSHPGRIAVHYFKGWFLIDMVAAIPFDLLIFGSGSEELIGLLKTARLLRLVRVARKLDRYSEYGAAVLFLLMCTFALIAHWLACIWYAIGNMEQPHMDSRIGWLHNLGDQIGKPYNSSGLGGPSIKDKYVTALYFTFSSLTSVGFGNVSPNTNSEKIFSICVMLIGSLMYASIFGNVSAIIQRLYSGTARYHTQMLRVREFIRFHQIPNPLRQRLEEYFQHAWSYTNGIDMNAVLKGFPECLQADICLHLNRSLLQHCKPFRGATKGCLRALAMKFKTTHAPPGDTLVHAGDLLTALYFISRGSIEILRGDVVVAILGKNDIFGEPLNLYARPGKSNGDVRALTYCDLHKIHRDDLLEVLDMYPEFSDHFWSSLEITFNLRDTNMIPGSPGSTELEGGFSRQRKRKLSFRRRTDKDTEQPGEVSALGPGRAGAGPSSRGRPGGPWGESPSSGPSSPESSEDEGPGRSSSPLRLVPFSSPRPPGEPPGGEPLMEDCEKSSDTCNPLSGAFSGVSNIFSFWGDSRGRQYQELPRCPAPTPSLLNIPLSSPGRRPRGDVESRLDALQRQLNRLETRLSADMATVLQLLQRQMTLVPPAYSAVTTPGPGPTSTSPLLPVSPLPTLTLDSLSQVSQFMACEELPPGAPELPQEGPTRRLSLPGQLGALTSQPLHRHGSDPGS
CYP3A4, sequence (P08684 whole entry): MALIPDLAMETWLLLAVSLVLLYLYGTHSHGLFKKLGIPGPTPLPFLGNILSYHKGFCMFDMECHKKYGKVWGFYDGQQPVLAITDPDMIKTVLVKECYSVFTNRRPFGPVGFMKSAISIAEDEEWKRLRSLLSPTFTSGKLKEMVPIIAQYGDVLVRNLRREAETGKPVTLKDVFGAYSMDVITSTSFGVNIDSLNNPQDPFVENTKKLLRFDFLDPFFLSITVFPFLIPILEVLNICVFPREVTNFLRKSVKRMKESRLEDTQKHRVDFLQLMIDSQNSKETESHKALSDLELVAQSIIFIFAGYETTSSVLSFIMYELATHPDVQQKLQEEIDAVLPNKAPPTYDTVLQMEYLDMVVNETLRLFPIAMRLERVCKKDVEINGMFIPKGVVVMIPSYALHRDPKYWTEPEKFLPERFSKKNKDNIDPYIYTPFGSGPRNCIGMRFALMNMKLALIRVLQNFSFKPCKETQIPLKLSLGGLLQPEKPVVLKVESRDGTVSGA

- Cl (Rat PK test (IV and PO)): 94.5 mL/min/kg
- F (Rat PK test (IV and PO)): 14.3%
- AUC(0-inf) (Rat PK test (IV and PO)): 132 ng·h/mL
- Cmax (Rat PK test (IV and PO)): 26 ng/mL
- half-life (Rat PK test (IV and PO)): 2.32 h
- Vd (Rat PK test (IV and PO)): 19.1 L/kg
- Papp A→B at 120 min (Caco-2 permeability test): 7.26 ×10⁻⁶ cm/s
- Papp B→A at 120 min (Caco-2 permeability test): 41 ×10⁻⁶ cm/s
- IC50 (CYP3A4; [2]): > 50000 nM
SMILES: COc1ccc(-c2c(-c3ccc(C#N)c(F)c3)nc(N3CCC(N)CC3)n(C)c2=O)cc1F [(CC90011), reference compound]

- Papp A→B at 120 min (Caco-2 permeability test): 5.95 ×10⁻⁶ cm/s
- Papp B→A at 120 min (Caco-2 permeability test): 6.92 ×10⁻⁶ cm/s
- efflux ratio at 120 min (Caco-2 permeability test): 1.16
- IC50 (CYP3A4): 5590 nM
SMILES: CS(=O)(=O)N1CCN(C(=O)c2cc(CCN[C@@H]3C[C@H]3c3ccc(F)cc3)nc(-c3ccc(-n4cccn4)cc3)n2)CC1 [Example 12, (2-(4-(1H-pyrazol-1-yl)phenyl)-6-(2-(((1R,2S)-2-(4-fluorophenyl)cyclopropyl)amino)ethyl)pyrimidin-4-yl) (4-(methylsulfonyl)piperazin-1-yl)methanone]
- IC50 [1]: 4690 nM

- IC50 (LSD1): 0.18 ± 0.08 nM
- IC50 (NCI-H1417 cells; [3]): 0.44 nM
- IC50 (CYP3A4; [2]): 54200 nM
SMILES: COc1ccc(-c2c(O)cc(N3CCC(N)CC3)nc2-c2ccc(C#N)c(F)c2)cc1O [Example 23, 4-(6-(4-aminopiperidin-1-yl)-4-hydroxy-3-(3-hydroxy-4-methoxyphenyl)pyridin-2-yl)-2-fluorobenzonitrile]
- IC50 [1, 4]: > 30000 nM

- IC50 (LSD1): 0.35 ± 0.09 nM
- IC50 (NCI-H1417 cells; [3]): 0.386 nM
- Cl (Rat PK test (IV and PO)): 60.6 mL/min/kg
- F (Rat PK test (IV and PO)): 21.8%
- AUC(0-inf) (Rat PK test (IV and PO)): 323 ng·h/mL
- Cmax (Rat PK test (IV and PO)): 65 ng/mL
- half-life (Rat PK test (IV and PO)): 2.58 h
- Vd (Rat PK test (IV and PO)): 14.7 L/kg
- Papp A→B at 120 min (Caco-2 permeability test): 4.27 ×10⁻⁶ cm/s
- Papp B→A at 120 min (Caco-2 permeability test): 25 ×10⁻⁶ cm/s
- efflux ratio at 120 min (Caco-2 permeability test): 5.84
- IC50 (CYP3A4; [2]): 49900 nM
SMILES: Cc1noc2cc(-c3c(-c4ccc(C#N)c(F)c4)nc(N4CCC(N)CC4)n4ccnc34)c(F)cc12 [Example 125, 4-(5-(4-aminopiperidin-1-yl)-8-(5-fluoro-3-methylbenzo[d]isoxazol-6-yl)imidazolo[1,2-c]pyrimidin-7-yl)-2-fluorobenzonitrile]
- IC50 [1, 4]: 9520 nM

- IC50 (LSD1): 4.19 ± 0.11 nM
- IC50 (NCI-H1417 cells; [3]): 6.46 nM
- IC50 (CYP3A4; [2]): > 50000 nM
SMILES: N#Cc1ccc(-c2nc(N3CCC(N)CC3)n3ccnc3c2-c2ccc(N3CCOCC3)cc2)cc1F [Example 128, 4-(5-(4-aminopiperidin-1-yl)-8-(4-morpholinophenyl)imidazolo [1,2-c]pyrimidin-7-yl)-2-fluorobenzonitrile]
- IC50 [1, 4]: 13700 nM

- IC50 (LSD1): 0.4 ± 0.2 nM
- IC50 (NCI-H1417 cells; [3]): 0.22 nM
- IC50 (CYP3A4; [2]): > 10000 nM
SMILES: COc1ccc(-c2c(-c3ccc(C#N)c(F)c3)nc(N3CC4CC3CC4N)n3ccnc23)cc1O (centres unmarked) [Example 164, 4-(5-(5-amino-2-azabicyclo[2.2. 1]heptan-2-yl)-8-(3-hydroxy-4-methoxyphenyl)imidazolo[1,2-c]pyrimidin-7-yl)-2-fluorobenzonitrile hydrochloride]

- IC50 (LSD1): 4.3 ± 0.9 nM
- IC50 (NCI-H1417 cells; [3]): 4 nM
- IC50 (CYP3A4; [2]): > 10000 nM
SMILES: COc1ccc(-c2c(-c3ccc(C#N)c(F)c3)nc(N3CC4CC3CC4N)n3ccnc23)cc1F (centres unmarked) [Example 169, 4-(5-(5-amino-2-azabicyclo[2.2.1]heptane-2-yl)-8-(3-fluoro-4-methoxyphenyl)imidazolo[1,2-c]pyrimidin-7-yl)-2-fluorobenzonitrile hydrochloride]

- IC50 (LSD1): 25.7 nM
- IC50 (NCI-H1417 cells; [3]): 11.6 nM
- IC50 (CYP3A4; [2]): 5540 nM
SMILES: COc1ccc(-c2nc(CN[C@@H]3C[C@H]3c3ccc(F)cc3)cc(C(=O)N3CCN(S(C)(=O)=O)CC3)n2)cc1O [Example 224]
- IC50 [1, 4]: 5600 nM

- IC50 (LSD1): 42.6 nM
- IC50 (NCI-H1417 cells; [3]): 3.91 nM
- IC50 (CYP3A4; [2]): 14100 nM
SMILES: CS(=O)(=O)N1CCN(C(=O)c2cc(CN[C@@H]3C[C@H]3c3ccc(F)cc3)nc(-c3ccc(N4CCOCC4)cc3)n2)CC1 [Example 227]
- IC50 [1, 4]: 6290 nM

- IC50 (LSD1): 4.8 ± 1.8 nM
- IC50 (NCI-H1417 cells; [3]): 0.986 nM
- IC50 (CYP3A4; [2]): > 10000 nM
SMILES: CC1CN(C(=O)c2cc(CN[C@@H]3C[C@H]3c3ccc(F)cc3)nc(-c3ccc(C#N)cc3)n2)CC(C)N1 (stereo partly drawn) [Example 239, 4-(4-(3,5-dimethyl-piperazine-1-carbonyl)-6-((((1R,2S)-2-(4-fluoro-phenyl)cyclopropyl)amino)methyl)pyrimidin-2-yl) benzonitrile]

- IC50 (LSD1): 18.1 nM
- IC50 (NCI-H1417 cells; [3]): 1.78 nM
- Cl (Rat PK test (IV and PO)): 39.6 mL/min/kg
- F (Rat PK test (IV and PO)): 9.54%
- AUC(0-inf) (Rat PK test (IV and PO)): 265 ng·h/mL
- Cmax (Rat PK test (IV and PO)): 56.2 ng/mL
- half-life (Rat PK test (IV and PO)): 4.96 h
- Vd (Rat PK test (IV and PO)): 4.22 L/kg
- Papp A→B at 120 min (Caco-2 permeability test): 3.59 ×10⁻⁶ cm/s
- Papp B→A at 120 min (Caco-2 permeability test): 3.36 ×10⁻⁶ cm/s
- efflux ratio at 120 min (Caco-2 permeability test): 0.96
SMILES: O=C(NC1CCOCC1)c1cc(CN[C@@H]2C[C@H]2c2ccc(F)cc2)nc(-c2ccc(N3CCOCC3)cc2)n1 [Example 246, 6-(((1R,2S)-2-(4-fluorophenyl)cyclopropyl)amino)methyl)-2-(4-morpho-linophenyl)-N-(tetrahydro-2H-pyran-4-yl)pyrimidine-4-carboxamide hydrochloride]
- IC50 [1, 4]: 8550 nM

- IC50 (LSD1): 0.2 ± 0.05 nM
- IC50 (NCI-H1417 cells; [3]): 1.19 nM
- IC50 (CYP3A4; [2]): > 10000 nM
SMILES: COc1ccc(-c2c(C#N)cc(N3CCC(N)CC3)nc2-c2ccc(C#N)c(F)c2)cc1O [Example 273, 6-(4-aminopiperidin-1-yl)-2-(4-cyano-3-fluorophenyl)-3-(3-hydroxy-4-methoxyphenyl)pyridine-4-carbonitrile]

The next lines start with the compound.

SMILES: COc1ccc(-c2cnc(N3CCC(N)CC3)c(C#N)c2-c2ccc(C#N)c(F)c2)cc1O [Example 66, 2-(4-aminopiperidin-1-yl)-4-(4-cyano-3-fluorophenyl)-5-(3-hydroxy-4-methoxyphenyl)nicotinon itrile hydrochloride]
- IC50 (LSD1): 0.2 ± 0.1 nM
- IC50 (NCI-H1417 cells; [3]): 0.2 nM
- Cl (Rat PK test (IV and PO)): 68.2 mL/min/kg
- F (Rat PK test (IV and PO)): 17.7%
- AUC(0-inf) (Rat PK test (IV and PO)): 227 ng·h/mL
- Cmax (Rat PK test (IV and PO)): 42.5 ng/mL
- half-life (Rat PK test (IV and PO)): 1.96 h
- Vd (Rat PK test (IV and PO)): 11.3 L/kg
- IC50 [1, 4]: 15500 nM
- IC50 (CYP3A4; [2]): 3650 nM

SMILES: N#Cc1ccc(-c2c(-c3ccc(C(F)(F)F)c(O)c3)cnc(N3CCC(N)CC3)c2C#N)cc1F [Example 70, 2-(4-aminopiperidin-1-yl)-4-(4-cyano-3-fluorophenyl)-5-(3-hydroxy-4-(trifluoromethyl)phenyl) nicotinonitrile hydrochloride]
- IC50 (LSD1): 0.5 ± 0.3 nM
- IC50 (NCI-H1417 cells; [3]): 0.885 nM
- IC50 (CYP3A4; [2]): 8710 nM

SMILES: Cc1noc2cc(-c3cnc(N4CCC(N)CC4)c(C#N)c3-c3ccc(C#N)c(F)c3)c(F)cc12 [Example 71, 2-(4-aminopiperidin-1-yl)-4-(4-cyano-3-fluorophenyl)-5-(5-fluoro-3-methylbenzo[d]isoxazol-6-yl)nicotinonitrile]
- IC50 (LSD1): 0.3 ± 0.2 nM
- IC50 (NCI-H1417 cells; [3]): 0.338 nM
- IC50 (CYP3A4; [2]): 4300 nM

SMILES: COc1ccc(-c2cnc(N3CC4CC3CC4N)c(C#N)c2-c2ccc(C#N)c(F)c2)cc1O (centres unmarked) [Example 73, 2-(5-amino-2-azabicyclo [2.2.1]heptane-2-yl)-4-(4-cyano-3-fluorophenyl)-5-(3-hydroxy-4-methoxyphenyl) nicotinitrile]
- IC50 (LSD1): 1.9 ± 0.4 nM
- IC50 (NCI-H1417 cells; [3]): 1.61 nM
- IC50 (CYP3A4; [2]): 7590 nM

SMILES: CNC1CCN(c2ncc(-c3ccc(OC)c(O)c3)c(-c3ccc(C#N)c(F)c3)c2C#N)CC1 [Example 79, 4-(4-cyano-3-fluorophenyl)-5-(3-hydroxy-4-methoxyphenyl)-2-(4-(methylamino)piperidin-1-yl) nicotinonitrile hydrochloride]
- IC50 (LSD1): 0.3 ± 0.1 nM
- IC50 (NCI-H1417 cells; [3]): 0.272 nM
- IC50 [1, 4]: 4380 nM
- IC50 (CYP3A4; [2]): > 10000 nM

SMILES: COc1ccc(-c2cnc(N3CCC(C)(N)CC3)c(C#N)c2-c2ccc(C#N)c(F)c2)cc1O [Example 80, 2-(4-amino-4-methylpiperidin-1-yl)-4-(4-cyano-3-fluorophenyl)-5-(3-hydroxy-4-methoxyphenyl) )nicotinonitrile hydrochloride]
- IC50 (LSD1): 1 ± 0.4 nM
- IC50 (NCI-H1417 cells; [3]): 1.22 nM
- IC50 [1, 4]: 9330 nM
- IC50 (CYP3A4; [2]): > 10000 nM

SMILES: COc1ccc(-c2c(OC)cc(N3CCC(N)CC3)nc2-c2ccc(C#N)c(F)c2)cc1F [Example 87, 4-(6-(4-aminopiperidin-1-yl)-3-(3-fluoro-4-methoxyphenyl)-4-methoxypyridin-2-yl)-2-fluoroben zonitrile]
- IC50 (LSD1): 2.82 ± 1.49 nM
- IC50 (NCI-H1417 cells; [3]): 3.29 nM
- Papp A→B at 120 min (Caco-2 permeability test): 2.97 ×10⁻⁶ cm/s
- Papp B→A at 120 min (Caco-2 permeability test): 3.35 ×10⁻⁶ cm/s
- efflux ratio at 120 min (Caco-2 permeability test): 1.13
- IC50 (CYP3A4; [2]): 6740 nM

SMILES: Cc1noc2cc(-c3sc(C(=O)N4C5CCC4CC(N)C5)nc3-c3ccc(C#N)c(F)c3)c(F)cc12 (centres unmarked) [Example 220, 4-(2-(3-amino-8-azabicyclo[3.2.1]octane-8-carbonyl)-5-(5-fluoro-3-methylbenzo[d]isoxazol-6-yl)thiazol-4-yl)-2-fluorobenzonitrile hydrochloride]
- IC50 (LSD1): 0.42 ± 0.06 nM
- IC50 (NCI-H1417 cells; [3]): 1.32 nM
- Papp A→B at 120 min (in vitro): 2.3 ×10⁻⁶ cm/s
- Papp B→A at 120 min (in vitro): 6.21 ×10⁻⁶ cm/s
- efflux ratio at 120 min (in vitro): 2.7

SMILES: COc1ccc(-c2c(-c3ccc(C#N)c(F)c3)nc(N3CCC(N)CC3)c3c2OCC(=O)N3)cc1O [Example 280, 4-(5-(4-aminopiperidin-1-yl)-8-(3-hydroxy-4-methoxyphenyl)-3-oxo-3,4-dihydro-2H-pyridine[4,3-b][1,4]oxazin-7-yl)-2-fluorobenzonitrile hydrochloride]
- IC50 (NCI-H1417 cells; NCI-H1417, 168 h, read-out: NCI-H1417 proliferation inhibition IC50(nM)): 2.7 ± 1 nM
- IC50 (CYP3A4; [2]): > 10000 nM
